Reference: PMC7156458, “Synthetic biology based construction of biological activity-related library of fungal decalin-containing diterpenoid pyrones” (Nature Communications, 2020)
Read-outs that look alike come from different tables or passages of the source.

Tests used:
[1] = cytotoxicity in Drosophila l(2)mbn cells; assay type: cell-based; conditions: Drosophila, l(2)mbn cells (larval blood cell-derived)
Method: (§1) We screened the DDPs on the Drosophila assay system for cytotoxicity, inhibitory activity of innate immune signalling and insecticidal activity. The cytotoxicity of the DDPs was evaluated using two cell lines, embryonic macrophage-derived DL1 cells[58]–[60] and larval blood cell-derived l(2)mbn cells, and their IC50 values are listed in Supplementary Table 23.

[2] = system: l(2)mbn cells; experiment: cytotoxicity in Drosophila l(2)mbn cells; assay type: cell-based; conditions: for Luminescence Raw1: replicate 1; for Luminescence Raw2: replicate 2; for IC50: Drosophila melanogaster, cytotoxicity
Method: as §1

[3] = system: MCF-7 cells; experiment: cell cytotoxic effects against MCF-7 cells (72 h), A490; assay type: cell-based, human; conditions: MCF-7, 72 h
[4] = cytotoxicity in Drosophila DL1 cells; assay type: cell-based; conditions: Drosophila, DL1 cells (embryonic macrophage-derived), DL1 cells
Method: as §1

[5] = system: DL1 cells; experiment: cytotoxicity in Drosophila DL1 cells; assay type: cell-based; conditions: DL1 cells; for IC50: Drosophila melanogaster, cytotoxicity
Method: as §1

[6] = system: SF-539; experiment: cells; design: species or system JFCR39 human cancer cell lines; JFCR39 panel growth inhibition, sulforhodamine B total protein after 48 h; conditions: Homo sapiens, SF-539, 48 h
In short: (§2)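 Cells are grown in kanamycin-supplemented RPMI-1640 with 5% FBS (37°C, humidified 5% CO2), then treated with compound for 48 hours. Antiproliferative effect is scored by sulforhodamine B protein staining and expressed as GI50, duplicate determinations.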

[7] = system: SK-OV-3; experiment: cells; design: species or system JFCR39 human cancer cell lines; JFCR39 panel growth inhibition, sulforhodamine B total protein after 48 h; conditions: Homo sapiens, SK-OV-3, 48 h
In short: as §2

[8] = system: SNB-75; experiment: cells; design: species or system JFCR39 human cancer cell lines; JFCR39 panel growth inhibition, sulforhodamine B total protein after 48 h; conditions: Homo sapiens, SNB-75, 48 h
In short: as §2

[9] = system: MAGI cells; experiment: cytotoxicity in the anti-HIV assay (CC50); assay type: cell-based; conditions: single determinations
[10] = replicate 1, relative to DMSO 1%, read-out: % viability, viability 1
[11] = replicate 2, relative to DMSO 1%, read-out: % viability, viability 2
[12] = average of two replicates, read-out: IC50 Average
[13] = replicate 1, read-out: IC50 (1)
[14] = replicate 2, read-out: IC50 (2)

C=C1CCC2C(C)(CCC=C(C)C)C(O)CCC2(C)C1Cc1c(OC)oc(C)c(C(=O)OC)c1=O (stereo not drawn) [Compound 14]
viability at 0.04 µM [1, 10]: 137% | viability at 0.04 µM [1, 11]: 114% | viability at 0.2 µM [1, 10]: 136% | viability at 0.2 µM [1, 11]: 147% | viability at 1 µM [1, 10]: 131% | viability at 1 µM [1, 11]: 146% | viability at 4 µM [1, 10]: 18.5% | viability at 4 µM [1, 11]: 16% | viability at 10 µM [1, 10]: 10.1% | viability at 10 µM [1, 11]: 9.05% | viability at 20 µM [1, 10]: 7.49% | viability at 20 µM [1, 11]: 6.87% | Luminescence Raw1 ([2]; 0.04 µM): 3506221 | Luminescence Raw2 ([2]; 0.04 µM): 2917163 | Luminescence Raw1 ([2]; 0.2 µM): 3483495 | Luminescence Raw2 ([2]; 0.2 µM): 3765235 | Luminescence Raw1 ([2]; 1 µM): 3358321 | Luminescence Raw2 ([2]; 1 µM): 3748640 | Luminescence Raw1 ([2]; 4 µM): 473811 | Luminescence Raw2 ([2]; 4 µM): 410710 | Luminescence Raw1 ([2]; 10 µM): 260351 | Luminescence Raw2 ([2]; 10 µM): 232227 | Luminescence Raw1 ([2]; 20 µM): 192204 | Luminescence Raw2 ([2]; 20 µM): 176340 | IC50 [2, 12]: 3.74 µM | IC50 ([2]; average±SEM, read-out: IC50): 3.74 ± 0.14 µM | IC50 [2, 13]: 3.6 µM | IC50 [2, 14]: 3.88 µM | viability at 0.1 µM ([3]; Homo sapiens, MCF7, 72 h, 0.1 µM (DMSO 0.002%), read-out: A490 (control =1) ave): 74.8% | viability at 1 µM ([3]; Homo sapiens, MCF7, 72 h, 1 µM (DMSO 0.02%), read-out: A490 (control =1) ave): 75.6% | viability at 10 µM ([3]; Homo sapiens, MCF7, 72 h, 10 µM (DMSO 0.2%), read-out: A490 (control =1) ave): 19.7% | A490 ave ([3]; 0.1 µM (DMSO 0.002%), control 1.064): 0.796 | A490 ave ([3]; 1 µM (DMSO 0.02%), control 1.104): 0.834 | A490 ave ([3]; 10 µM (DMSO 0.2%), control 1.049): 0.207 | viability at 0.04 µM [4, 10]: 109% | viability at 0.04 µM [4, 11]: 115% | viability at 0.2 µM [4, 10]: 94.8% | viability at 0.2 µM [4, 11]: 82.2% | viability at 1 µM [4, 10]: 10.1% | viability at 1 µM [4, 11]: 8.02% | viability at 4 µM [4, 10]: 5.72% | viability at 4 µM [4, 11]: 6.14% | viability at 10 µM [4, 10]: 6.46% | viability at 10 µM [4, 11]: 5.9% | viability at 20 µM [4, 10]: 5.02% | viability at 20 µM [4, 11]: 4.22% | Luminescence Raw1 ([5]; 0.04 µM, replicate 1): 2252387 | Luminescence Raw2 ([5]; 0.04 µM, replicate 2): 2365278 | Luminescence Raw1 ([5]; 0.2 µM, replicate 1): 1952676 | Luminescence Raw2 ([5]; 0.2 µM, replicate 2): 1693730 | Luminescence Raw1 ([5]; 1 µM, replicate 1): 208403 | Luminescence Raw2 ([5]; 1 µM, replicate 2): 165136 | Luminescence Raw1 ([5]; 4 µM, replicate 1): 117902 | Luminescence Raw2 ([5]; 4 µM, replicate 2): 126556 | Luminescence Raw1 ([5]; 10 µM, replicate 1): 133046 | Luminescence Raw2 ([5]; 10 µM, replicate 2): 121508 | Luminescence Raw1 ([5]; 20 µM, replicate 1): 103480 | Luminescence Raw2 ([5]; 20 µM, replicate 2): 86894 | IC50 [5, 12]: 0.438 µM | IC50 ([5]; average±SEM, read-out: IC50): 0.44 ± 0.06 µM | IC50 [5, 13]: 0.502 µM | IC50 [5, 14]: 0.374 µM | GI50 [6]: 12.4 µM | GI50 [7]: 13.6 µM | GI50 [8]: 20.1 µM | Cytotoxicity [9]: >10 µM
